Here are results for ten compounds from US7655629B2, “Peptides and their use for the treatment of HIV infections” (priority 2002, dated 2010).

Like-named read-outs stand apart in the source and are kept apart here. Positions of bridges follow the written chain, without caps; N, C: chain ends. Non-standard residues stand in square brackets, D forms with d. Residues, ends and D or L forms follow the SMILES beside them. ξ: configuration not given here. Oic(3aξ,7aξ) = O=C(O)[C@@H]1CC2CCCCC2N1; Tic = O=C(O)[C@@H]1Cc2ccccc2CN1; dTic = O=C(O)[C@H]1Cc2ccccc2CN1; NMeL = CN[C@@H](CC(C)C)C(=O)O; AEEA = NCCOCCOCC(=O)O

One data set concerns HIV-1 NL4-3 DTV. As to conditions: read-out: IC50 DTV, P4-CCR5 cells, peptide 2 h before infection, readout three days after infection. The method in brief: (§1)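 P4-CCR5 cells (CD4, CCR5, CXCR4, HIV-1 promoter-driven β-galactosidase) pretreated 2 h with peptide, then infected with virus containing 1 ng p24 antigen and incubated overnight. Cells washed and cultured without peptide; three days post-infection infectivity read by chemiluminescent β-galactosidase assay, in quintuplicate.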

Another data set has as its system X4-tropic HIV-1 NL4-3. As to conditions: read-out: IC50 NL4-3; P4-CCR5 cells, HIV-1 NL4-3, peptide 2 h before infection, readout three days after infection. Summed up:
as §1

The target in data set [1] is T1, synthetic fusion peptide of HIV gp41 (Human immunodeficiency virus type 1 group M subtype B, UniProt P04578).
T1 construct: The fusion peptide is the very amino-terminal part of gp41 consisting of about 30 amino acid residues
T1 sequence (P04578 512-532): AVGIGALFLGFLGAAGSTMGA
Briefly: Inhibition of fusion peptide-induced hemolysis. It is filed as cell-based. To be noted: peptides at 1000, 100 and 10 μM preincubated with 100 μM fusion peptide, human erythrocytes, hemoglobin release. The procedure:
The synthetic fusion peptide of HIV gp41 causes concentration-dependent hemolysis which can be measured by hemoglobin released by erythrocytes.
Peptides and any other substance binding to the fusion peptide impair its potency to lyse erythrocytes by changing its structural properties. The inhibition of fusion peptide induced hemolysis was tested as follows: Blood from healthy donors was collected in citrate monovettes and the erythrocytes were extracted by a standard centrifugation and washing protocol known to the skilled person. The final erythrocyte-containing pellett was diluted 1:100 with phosphate-saline buffer. To the peptides (10, 100, or 1000 equivalents) 20 μl of a 100 μM fusion peptide solution in 10% DMSO were added and the solution was diluted to 100 μl with phosphate-buffered saline. A 60 min incubation at 37° C. was carried out. After the preincubation the samples were transferred to 96-well plates and 100 μl of the erythrocyte suspension were added and incubated for 60 min at 37° C. […] The 96-well plate is centrifuged 5 min at 2800 rpm and of the supernatant fluid 150 μl were transferred to a flat-bottom microtiter plate, and the absorbance was measured at 450 nm. The percentage hemolysis was calculated by: [(A450 of the peptide treated sample—A450 of buffer treated sample)/(A450 of Tween-20 treated sample—A450 of buffer treated sample)]×100%.

The conditions of data set [2]: human, plasma.
Protocol: (§2) Plasma was spiked resulting in concentrations of 40 μg/ml and stored at 37° C. At time points 0, 15, 30, 45, 60, 120, 180, 240 and 300 min samples of 20 μl were taken. The plasma was immediately mixed for precipitation with the two-fold volume of acetonitrile containing 0.15% (w/v) n-nonyl-β-D-glucopyranoside. Following centrifugation the supernatants were mixed with the two-fold volume of 0.1% (v/v) trifluroacetic acid. Twenty μl of these solutions were analyzed by LC-MS. Chromatography was performed using a gradient with the following eluents: eluent A: water containing 0.06% trifluroacetic acid (v/v), eluent B: acetonitrile/water 80:20 (v/v; with 0.05% trifluoroacetic acid; v/v). A C18 precolumn was used in combination with a C18 separation column (300 Å, 5 μm, 150×1 mm inner diameter) at a flow rate of 30 μl/min. HPLC eluates were ionized by the electrospray technique of a LCQ classic mass spectrometer. Areas of the detected peaks of the peptides of the present invention were measured and used for quantification by external calibration. The calibration curve was linear over a range from 0.5 μg/ml to 250 μg/ml plasma. Half life—defined as the period for a concentration decrease to 50% of the initial concentration—was calculated from the slope of an extrapolated curve plotting the relative peptide concentration at a given time point (logarithm scale) against the incubation time. These experiments allowed the quantitative analysis of peptide concentration in plasma.
The conditions of data set [3]: rat, plasma.
The conditions of data set [4]: dog, plasma.
For data set [5] the following is noted: cynomolgus monkey, plasma.
Protocol: as §2

As usually defined, the IC50 is the point on the concentration scale where inhibition reaches its midpoint. As for `CC[C@H](C)[C@H](NC(=O)[C@H](C)NC(=O)[C@H](CCC(=O)O)NC(=O)[C@@H](N)CC(C)C)C(=O)N1CCC[C@H]1C(=O)N[C@@H](CCSC)C(=O)N[C@@H](CO)C(=O)N[C@H](C(=O)N1CCC[C@H]1C(=O)N1CCC[C@@H]1C(=O)N[C@@H](CCC(=O)O)C(=O)N[C@H](C(=O)N[C@@H](C)C(=O)N[C@@H](Cc1ccccc1)C(=O)N[C@@H](CC(N)=O)C(=O)N[C@@H](CCCCN)C(=O)N1C2CCCCC2C[C@H]1C(=O)N[C@@H](Cc1ccccc1)C(=O)N[C@H](C(=O)N[C@@H](Cc1ccccc1)C(=O)O)C(C)C)C(C)C)[C@@H](C)CC` (stereo partly shown) [VIR-269, LEAIPMSIPpEVAFNK(Oic)FVF] (H-LEAIPMSIP[dP]EVAFNK[Oic(3aξ,7aξ)]FVF-OH), the IC50 in the data set on HIV-1 NL4-3 DTV was 900 nM; in the data set with X4-tropic HIV-1 NL4-3, 2610 nM. Moreover, the “inhibition of fusion peptide-induced hemolysis” value in data set [1] is given as “Dose dependent inhibition”.

In general, half-life refers to the time in which the quantity being followed falls by half. High values mean slow loss, low ones fast loss. In the case of `CC[C@H](C)[C@H](NC(=O)[C@H](C)NC(=O)[C@H](CCC(=O)O)NC(=O)[C@@H](N)CC(C)C)C(=O)N1CCC[C@H]1C(=O)N[C@@H](CCSC)C(=O)NCC(=O)N[C@H](C(=O)N1CCC[C@H]1C(=O)N1CCC[C@@H]1C(=O)N[C@@H](CCC(=O)O)C(=O)N[C@H](C(=O)N1Cc2ccccc2C[C@H]1C(=O)N[C@@H](Cc1ccccc1)C(=O)N[C@@H](CC(N)=O)C(=O)N[C@@H](CCCCN)C(=O)N1CCC[C@H]1C(=O)N[C@@H](Cc1ccccc1)C(=O)N[C@H](C(=O)N[C@@H](Cc1ccccc1)C(=O)O)C(C)C)C(C)C)[C@@H](C)CC` [VIR-449, LEAIPMGIPpEV(L-Tic)FNKPFVF] (H-LEAIPMGIP[dP]EV[Tic]FNKPFVF-OH), the results for the half-maximal inhibitory concentration (IC50) in the data set on HIV-1 NL4-3 DTV and in the data set with X4-tropic HIV-1 NL4-3 were 240 nM and 274 nM, respectively. The half-life in data set [2] was 4.8 h; in data set [3], 0.2 h; in data set [4] it was 42.2 h; in data set [5], 4.2 h.

As for `CC[C@H](C)[C@H](NC(=O)[C@H](CCCCN)NC(=O)[C@H](CCC(=O)O)NC(=O)[C@@H](N)CC(C)C)C(=O)N1CCC[C@H]1C(=O)N[C@@H](CCSC)C(=O)N[C@@H](CO)C(=O)N[C@H](C(=O)N1CCC[C@H]1C(=O)N1CCC[C@@H]1C(=O)N[C@@H](CCC(=O)O)C(=O)N[C@H](C(=O)N1Cc2ccccc2C[C@@H]1C(=O)N[C@@H](Cc1ccccc1)C(=O)N[C@@H](CC(N)=O)C(=O)N[C@@H](CCCCN)C(=O)N1CCC[C@H]1C(=O)N[C@@H](Cc1ccccc1)C(=O)N[C@H](C(=O)N[C@@H](Cc1ccccc1)C(=O)O)C(C)C)C(C)C)[C@@H](C)CC` [VIR-454, LEKIPMSIPpEV(D-Tic)FNKPFVF] (H-LEKIPMSIP[dP]EV[dTic]FNKPFVF-OH), the half-maximal inhibitory concentration (IC50) came out at 1090 nM with HIV-1 NL4-3 DTV and 464 nM with X4-tropic HIV-1 NL4-3. In addition, the half-life in data set [2] is 4.4 h; in data set [3], 0.2 h; in data set [4], 15.6 h; in data set [5] it was 4.4 h.

For the compound `CC[C@H](C)[C@H](NC(=O)[C@H](CCCCN)NC(=O)[C@H](CCC(=O)O)NC(=O)[C@@H](N)CC(C)C)C(=O)N1CCC[C@H]1C(=O)N[C@@H](CCSC)C(=O)N[C@@H](CO)C(=O)N[C@H](C(=O)N1CCC[C@H]1C(=O)N1CCC[C@@H]1C(=O)N[C@@H](CCC(=O)O)C(=O)N[C@H](C(=O)N1Cc2ccccc2C[C@H]1C(=O)N[C@@H](Cc1ccccc1)C(=O)N[C@@H](CC(N)=O)C(=O)N[C@@H](CCCCN)C(=O)N1CCC[C@H]1C(=O)N[C@@H](Cc1ccccc1)C(=O)N[C@H](C(=O)N[C@@H](Cc1ccccc1)C(=O)O)C(C)C)C(C)C)[C@@H](C)CC` [VIR-455, LEKIPMSIPpEV(L-Tic)FNKPFVF] (H-LEKIPMSIP[dP]EV[Tic]FNKPFVF-OH), the IC50 with HIV-1 NL4-3 DTV is 353 nM; in the data set on X4-tropic HIV-1 NL4-3, 134 nM. Moreover, the half-life in data set [2] is 5.8 h; in data set [3], 0.3 h; in data set [4] it was 8.6 h; in data set [5] it was 6.8 h.

Take `CC[C@H](C)[C@H](NC(=O)[C@@H]1CCCN1C(=O)[C@@H](NC(=O)[C@H](CCCCN)NC(=O)[C@H](CCC(=O)O)NC(=O)[C@@H](N)CC(C)C)[C@@H](C)CC)C(=O)NCC(=O)N[C@H](C(=O)N1CCC[C@H]1C(=O)N1CCC[C@@H]1C(=O)N[C@@H](CCC(=O)O)C(=O)N[C@H](C(=O)N1Cc2ccccc2C[C@@H]1C(=O)N[C@@H](Cc1ccccc1)C(=O)N[C@@H](CC(N)=O)C(=O)N[C@@H](CCCCN)C(=O)N1CCC[C@H]1C(=O)N[C@@H](Cc1ccccc1)C(=O)N[C@H](C(=O)N[C@@H](Cc1ccccc1)C(=O)O)C(C)C)C(C)C)[C@@H](C)CC` [VIR-483, LEKIPIGIPpEV(D-Tic)FNKPFVF] (H-LEKIPIGIP[dP]EV[dTic]FNKPFVF-OH): the concentration for half-maximal inhibition (IC50) was found to be 866 nM in the data set with HIV-1 NL4-3 DTV and 765 nM in the data set on X4-tropic HIV-1 NL4-3. Besides, the half-life in data set [2] is 2.6 h; in data set [3], 0.2 h; in data set [4], 6.2 h; in data set [5] it was 2.2 h.

With `CC[C@H](C)[C@H](NC(=O)[C@@H]1CCCN1C(=O)[C@@H](NC(=O)[C@H](CCCCN)NC(=O)[C@H](CCC(=O)O)NC(=O)[C@@H](N)CC(C)C)[C@@H](C)CC)C(=O)NCC(=O)N[C@H](C(=O)N1CCC[C@H]1C(=O)N1CCC[C@@H]1C(=O)N[C@@H](CCC(=O)O)C(=O)N[C@H](C(=O)N1Cc2ccccc2C[C@H]1C(=O)N[C@@H](Cc1ccccc1)C(=O)N[C@@H](CC(N)=O)C(=O)N[C@@H](CCCCN)C(=O)N1CCC[C@H]1C(=O)N[C@@H](Cc1ccccc1)C(=O)N[C@H](C(=O)N[C@@H](Cc1ccccc1)C(=O)O)C(C)C)C(C)C)[C@@H](C)CC` [VIR-484, LEKIPIGIPpEV(L-Tic)FNKPFVF] (H-LEKIPIGIP[dP]EV[Tic]FNKPFVF-OH), the values for the IC50 with HIV-1 NL4-3 DTV and in the data set on X4-tropic HIV-1 NL4-3 were 339 nM and 100 nM, respectively. Besides, the half-life in data set [2] was 5 h; in data set [3], 0.2 h; in data set [4], 12.4 h; in data set [5], 3.6 h.

In the case of `CC[C@H](C)[C@H](NC(=O)[C@H](C)NC(=O)[C@H](CCC(=O)O)NC(=O)[C@H](CC(C)C)NC)C(=O)N1CCC[C@H]1C(=O)N[C@@H](CCSC)C(=O)N[C@@H](CO)C(=O)N[C@H](C(=O)N1CCC[C@H]1C(=O)N1CCC[C@H]1C(=O)N[C@@H](CCC(=O)O)C(=O)N[C@@H](Cc1ccccc1)C(=O)N[C@@H](CC(C)C)C(=O)N[C@@H](Cc1ccccc1)C(=O)NCC(=O)N[C@@H](CCCCN)C(=O)N1CCC[C@H]1C(=O)N[C@@H](Cc1ccccc1)C(=O)N[C@H](C(=O)N[C@@H](Cc1ccccc1)C(=O)O)C(C)C)[C@@H](C)CC` [VIR-512] (H-[NMeL]EAIPMSIPPEFLFGKPFVF-OH), the half-maximal inhibitory concentration (IC50) in the data set with HIV-1 NL4-3 DTV was determined as 615 nM; in the data set on X4-tropic HIV-1 NL4-3, 138 nM. In addition, the half-life in data set [2] is 315 h; in data set [3], over 6 h; in data set [4], 48.1 h; in data set [5], 33.6 h.

Regarding `CC[C@H](C)[C@H](NC(=O)[C@H](C)NC(=O)[C@H](CCC(=O)O)NC(=O)[C@@H](N)CC(C)C)C(=O)N1CCC[C@H]1C(=O)N[C@@H](CCSC)C(=O)N[C@@H](CO)C(=O)N[C@H]1CSSC[C@@H](C(=O)N[C@@H](Cc2ccccc2)C(=O)NCC(=O)N[C@@H](CCCCN)C(=O)N2CCC[C@H]2C(=O)N[C@@H](Cc2ccccc2)C(=O)N[C@H](C(=O)N[C@@H](Cc2ccccc2)C(=O)O)C(C)C)NC(=O)[C@H](Cc2ccccc2)NC(=O)[C@H](CCC(=O)O)NC(=O)[C@@H]2CCCN2C(=O)[C@@H]2CCCN2C1=O` [VIR-568] (H-LEAIPMSCPPEFCFGKPFVF-OH; disulfide 8-13), the half-maximal inhibitory concentration (IC50) with HIV-1 NL4-3 DTV was found to be 552 nM; with X4-tropic HIV-1 NL4-3, 367 nM. Besides, the half-life in data set [2] was 3.9 h; in data set [3], 0.1 h; in data set [4], 4 h; in data set [5], 2.2 h.

For `CC[C@H](C)[C@H](NC(=O)[C@H](C)NC(=O)[C@H](CCC(=O)O)NC(=O)[C@@H](N)CC(C)C)C(=O)N1CCC[C@H]1C(=O)N[C@@H](CCSC)C(=O)N[C@@H](CO)C(=O)N[C@H](C(=O)N1CCC[C@H]1C(=O)N1CCC[C@H]1C(=O)N[C@@H](CCC(=O)O)C(=O)N[C@@H](Cc1ccccc1)C(=O)N[C@@H](CC(C)C)C(=O)N[C@@H](Cc1ccccc1)C(=O)NCC(=O)N[C@@H](CCCCN)C(=O)N1CCC[C@H]1C(=O)N[C@@H](Cc1ccccc1)C(=O)N[C@H](C(=O)N[C@@H](Cc1ccccc1)C(=O)NCCOCCOCC(=O)NCCOCCOCC(N)=O)C(C)C)[C@@H](C)CC` [VIR-580] (H-LEAIPMSIPPEFLFGKPFVF[AEEA][AEEA]-NH2), the IC50 in the data set with HIV-1 NL4-3 DTV came to 497 nM; with X4-tropic HIV-1 NL4-3, 150 nM. Besides, the half-life in data set [2] was 38.9 h; in data set [3], 1.4 h; in data set [4], 42 h; in data set [5] it was 10.2 h.

As for H-LEAIPMSIPPEFLFGKPFVF-OH [VIR-175], the values for the IC50 in the data set with HIV-1 NL4-3 DTV and with X4-tropic HIV-1 NL4-3 were 300 nM and 225 nM, respectively. In data set [1], the “inhibition of fusion peptide-induced hemolysis” value was “Dose dependent inhibition”. For the same compound, the half-life in data set [2] was 5.3 h; in data set [3], 0.2 h; in data set [4], 17.3 h; in data set [5], 3 h.
